Source: patent publication US20070149483A1, “Methods and compounds for modulating triglyceride and vldl secretion” (priority 2003, published 2007)
Marks after values point to notes of the source that are not given here.

Columns and labels:
Assay type in all cases: cell-based, rat
[1] = tested on: McA-RH7777 cells stably expressing human apoB100; assay: Competitive ELISA of apoB100 protein in medium; conditions: after 16-h incubation, n=3
Description: (§1) Cell Culture and Fatty Acid Treatments—Transfected McA-RH7777 cells stably expressing human apoB100 (McLeod et al., 1994, J. Biol. Chem. 269, 2852-2862) were cultured in Dulbecco's modified Eagle's medium (DMEM) containing 10% fetal bovine serum (FBS), 10% horse serum and 200 μg/ml G418. Routinely, the cells were incubated with 0.4 mM fatty acids for 16-18 h in the presence of 20% FBS prior to experiments.
Competitive Enzyme Linked Immunosorbent Assay (ELISA)—The ELISA plates were coated with human LDL (1 mg/ml in PBS, 16 h, 4° C.), blocked with skim milk (5% in PBS, 2 h, 37° C.), and washed three times with PBS containing 0.02% Tween-20. The plates were incubated with apoB monoclonal antibody 1D1 (1:64,000, 16 h, 4° C.) in the presence of serial diluted concentrations of human LDL or medium samples. The plates were washed and incubated with horseradish peroxidase-linked anti-mouse IgG antibody (1:10,000, 2 h, 37° C.), followed by addition of the liquid substrate system for ELISA (3,3′,5,5′-tetramethyl-benzidine). The reaction was quantified colorimetrically by spectrophotometer reading at OD665.

[2] = tested on: McA-RH7777 cells stably expressing human apoB100; assay: Tandem mass spectrometry of PC and PE in membranes of subcellular organelles; conditions: for PC content, Total / PC content, membranes of ER / PC content, membranes of cis/medial Golgi / PC content, membranes of distal Golgi / PE content, Total / PE content, membranes of ER / PE content, membranes of cis/medial Golgi / PE content, membranes of distal Golgi: control cells set as 100
Description: Subcellular Fractionation—Three subcellular fractions (i.e., ER, fractions 1 through 3; cis/medial Golgi, fractions 4 through 8; distal Golgi, fractions 9 through 15) were obtained from the cell lysates using Nycodenz gradient centrifugation (Hammond and Helenius, 1994, J. Cell Biol. 126, 41-52; Rickwood et al., 1982, Anal. Biochem. 123, 23-31) of the post-nuclear supernatant as previously described (Tran et al., 2002). […] The membrane and lumen preparations from ER (Nycodenz fractions 1 through 3), cis/medial Golgi (fractions 4 through 8), and distal Golgi (fractions 9 through 15) were derived from cells pooled from eight 100-mm dishes. Lipids were extracted from the samples with chloroform/methanol/acetic acid/saturated NaCl/H2O (4:2:0.1:1:2, by volume) in the presence of 230 pmol dimirystoyl (14:0-14:0) PC and 110 pmol dipalmitoyl (16:0-16:0) PE as internal standards. Aliquots of lipid extracts were applied to tandem mass spectrometry, and the molecular species (i.e. fatty acid composition) of PC and PE was determined by daughter ion analysis in the negative ion mode as previously described (Tran et al., 2002; DeLong et al., 1999, J. Biol. Chem. 274, 29683-29688). The integrated area under the peak of each molecular species was quantified by comparing with those of internal standards.

[3] = tested on: McA-RH7777 cells stably expressing human apoB100; assay: Pulse-chase (1 h pulse, up to 3 h chase) of apoB100 and apoA-I secretion efficiency
Description: The cells were then incubated with chase medium for 15, 30 and 45 min. At the end of each chase time, the medium was collected and subjected to cumulative rate flotation centrifugation (Wang et al., 1999) to resolve apoB100-VLDL1 (Sf>100) and apoB100-VLDL2 (Sf 20-100) from other lipoproteins (i.e. IDL, LDL and HDL). The ^35S-apoB100 in each fraction was recovered by immunoprecipitation. Also, at the end of each chase time, the radiolabeled cells were harvested in 2 ml of ice-cold homogenization buffer (10 mM Tris-HCl, pH 7.4, 250 mM sucrose, 5 mM EDTA, and serine/cysteine protease inhibitor mixture), mixed with two 100-mm dishes of unlabeled cells, homogenized by passing ten times through a ball-bearing homogenizer, and subjected to subcellular fractionation and carbonate-treatment as described below.
Oleate and EPA were present in both pulse and chase media. The [^35S]-apoB100 from total cell lysates (FIG. 2A) or conditioned media (FIG. 2B) was immunoprecipitated, resolved by SDS-PAGE, and visualized by fluorography. Radioactivity associated with [^35S]-apoB100 was quantified. As shown in the top panels of FIG. 2A to 2B, the data is expressed as absolute amount of radioactivity associated with [^35S]-apoB100 at the end of 1-h pulse. As shown in the […] panels of FIG. 2A to 2B, the data is expressed as percent of the initial counts associated with ^35S-apoB100 at the end of 1-h pulse. […] The experiments were repeated and similar results were obtained.
It has been shown previously that VLDL, particles carry >80% of total TG but <10% of total apoB100 secreted from oleate-treated McA-RH777 cells (Wang et al., 1999, J. Biol. Chem. 274: 27793-27800). Thus the possibility was considered that the above pulse (30-min)-chase(60 min) experiment might fail to detect decreased secretion and increased post-translational degradation of apoB100 because n-3 fatty acid treatment was reported to selectively decrease apoB100 in VLDL fractions (Fisher and Ginsberg, 2002, J. Biol. Chem. 277: 17377-17380). In the next set of experiments, the pulse-labelling period was extended to 1 h to maximize [^35S]-labelling of apoB100 and to allow examination of potential posttranslational degradation. […] The high labelling of apoB100 at the end of 1-h pulse may reflect increased intracellular accumulation of newly synthesized apoB100 and/or impaired secretion. […] The secretion efficiency, which measures the proportion of total metabolically labelled [^35S]-apoB100 secreted at the end of chase was decreased from 60% to 40% in EPA-treated cells compared to OA-treated cells (FIG. 2B, bottom). […]

[4] = tested on: McA-RH7777 cells stably expressing human apoB100; assay: Synthesis and secretion of [3H]glycerol-labelled TG and PC
Description: as §1
Other Assays—The TG transfer activity of MTP was determined according to published method (Wetterau et al., 1992, Science 258, 999-1001) with modifications (Wang et al., 1999). The phosphatidate phosphohydrolase activity was determined by an established method (Jamal et al., 1991, J. Biol. Chem. 266, 2988-2996). Lipid extraction and analysis by TLC was performed as previously described (Tran et al., 2000). Protein was determined using the BCA™ protein assay kit (Pierce).

[5] = end of 2-h labelling with [^3H]glycerol, means ± SD of triplicate

SMILES	amount of apoB100 protein accumulated in the medium [1]	PC content, Total [2]	PC content, membranes of ER [2]	PC content, membranes of cis/medial Golgi [2]	PC content, membranes of distal Golgi [2]	PE content, Total [2]	PE content, membranes of ER [2]	PE content, membranes of cis/medial Golgi [2]	PE content, membranes of distal Golgi [2]	increase in PE mass in the ER ([2]; vs untreated control)	increase in total PE mass ([2]; vs untreated control)	amount of [^35S] incorporated into apoB100 at the end of 1-h pulse [3]	[^3H]PC Cell [4, 5]	[^3H]PC Medium [4, 5]	[^3H]TG Medium [4, 5]	further results
CCCCCCCC/C=C\CCCCCCCC(=O)O [Oleate, oleic acid]	2.74 ± 0.48 µg/mL	(156) % of control	(182) % of control	(107) % of control	(173) % of control	(129) % of control	(172) % of control	(112) % of control	(106) % of control	72%	29%	6.40×10^4 cpm/dish	15.00 ± 0.23 cpm × 10^−3/dish	4.10 ± 0.12 cpm × 10^−3/dish	12.87 ± 1.59 cpm × 10^−3/dish	increase in PC mass in the ER ([2]; vs untreated control): 82%; increase in PC mass in the distal Golgi ([2]; vs untreated control): 73%; increase in total PC mass associated with intracellular microsomes ([2]; vs untreated control): 56%
CC/C=C\C/C=C\C/C=C\C/C=C\C/C=C\CCCC(=O)O [EPA, eicosapentaenoic acid]	2.5 ± 0.43 µg/mL	(92)* % of control	(108)* % of control	(70)* % of control	(94)* % of control	(185)* % of control	(216) % of control	(127) % of control	(270)* % of control	116%	85%	9.43×10^4 cpm/dish	15.80 ± 0.44 cpm × 10^−3/dish	3.86 ± 0.57 cpm × 10^−3/dish	7.18 ± 0.96^b cpm × 10^−3/dish	increase in PE mass in the distal Golgi ([2]; vs untreated control): 170%; [^35S] incorporated into apoB100 at the end of 1-h pulse, greater than in oleate-treated cells [3]: ~40%; secretion efficiency (proportion of total metabolically labelled [^35S]-apoB100 secreted at the end of chase) ([3]; 3-h chase): 40%; [^3H]TG Cell [4, 5]: 40.84 ± 0.70^b cpm × 10^−3/dish; reduction in secretion of [^3H]glycerol-labelled TG ([4]; vs oleate-treated cells): 50%
